ChEMBL document CHEMBL5034039, “Discovery of Novel, Orally Bioavailable Pyrimidine Ether-Based Inhibitors of ELOVL1” (J Med Chem, 2021)

Legend:
[1] = target: T1, Very long chain fatty acid elongase 1 (Homo sapiens, UniProt Q9BW60); assay: Inhibition of ELOVL1 (unknown origin)
T1 sequence (Q9BW60 whole entry): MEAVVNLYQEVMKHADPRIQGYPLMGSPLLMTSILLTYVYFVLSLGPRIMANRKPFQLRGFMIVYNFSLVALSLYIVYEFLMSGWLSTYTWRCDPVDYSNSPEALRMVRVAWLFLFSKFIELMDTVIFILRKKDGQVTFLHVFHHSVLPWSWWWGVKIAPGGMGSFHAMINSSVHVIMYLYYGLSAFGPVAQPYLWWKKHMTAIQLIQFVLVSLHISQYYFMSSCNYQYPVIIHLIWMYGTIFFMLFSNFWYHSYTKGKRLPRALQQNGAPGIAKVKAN

[2] = Intrinsic clearance in rat hepatocytes assessed per million cells; type: ADME, cell-based, Hepatocyte; settings: read-out: CLH
[3] = target: T1, Very long chain fatty acid elongase 1; assay: Inhibition of ELOVL1 in HEK293 cells assessed as reduction of C26:0 lipo phosphatidyl choline synthesis; type: cell-based
[4] = Lipophilicity, logD of the compound at pH 7.4; type: physicochemical; settings: buffer

SMILES	IC50 [1] [nM]	hepatocyte CLint [2] [µL/min/1e6 cells]	IC50 [3] [nM]	logD [4]
Fc1ccc(CCOc2cc(-c3cccnc3)ccn2)cc1	> 20000	–	–	–
c1ccc([C@H]2CN(c3cc(O[C@H]4C[C@@H](n5ccnn5)C4)ncn3)CCO2)cc1	–	14	9	2.9
CN(c1cc(OCCc2ccc(F)cc2)ncn1)C1CCOC1 (stereo not given)	–	327	60	3.6
Fc1ccn([C@H]2C[C@H](c3cc(O[C@H]4C[C@@H](n5cccn5)C4)ncn3)C2)n1	–	8.4	0.3	3.1
Cc1ccnn1CCOc1cc(N2CCCCC2)ncn1	–	366	140	2.8
Clc1ccn([C@H]2C[C@H](c3cc(O[C@H]4C[C@@H](n5cccn5)C4)ncn3)C2)n1	–	12	2	3.5
c1cnn([C@H]2C[C@@H](Oc3cc([C@H]4C[C@H](n5cccn5)C4)ncn3)C2)c1	–	5.6	10	2.6
c1cnn([C@H]2C[C@@H](Oc3cc([C@H]4C[C@@H](n5cccn5)C4)ncn3)C2)c1	–	12	210	2.6
Fc1cnn([C@H]2C[C@H](c3cc(O[C@H]4C[C@@H](n5cccn5)C4)ncn3)C2)c1	–	9.2	0.6	3.1
c1ccc([C@H]2CN(c3cc(O[C@H]4C[C@@H](c5nnco5)C4)ncn3)CCO2)cc1	–	8	9	2.8
Cc1ccnn1CCCOc1cc(N2CCOC3(COC3)C2)ncn1	–	13	120	1.6
Cc1ccnn1CCCOc1cc(N2CCOC(c3ccnn3C)C2)ncn1 (stereo not given)	–	23	140	2.1
Cc1ccnn1CCCOc1cc(N2CCOC(C(F)(F)F)C2)ncn1 (stereo not given)	–	194	7	2.9
c1ccc([C@H]2CN(c3cc(O[C@H]4C[C@@H](c5ncco5)C4)ncn3)CCO2)cc1	–	17	5	3.9
